Consider 24 molecules from patent US8673966B2, “ALDH-2 inhibitors in the treatment of addiction” (Gilead Sciences, Inc., priority 2011, dated 2014).

Common to all, as to type: biochemical
Assay [1] has as its target recombinant human ALDH2 (Homo sapiens (Human), UniProt P05091). The experiment in a line: ALDH2 assay (NADH formation). As to conditions: 10 nM recombinant human ALDH2, 150 uM formaldehyde, 60 min pre-incubation; read-out: IC50 hALDH2. How it is done:
Standard ALDH2 reaction mixtures contained 150 uM formaldehyde, 2.5 mM NAD^+, 10 mM MgCl2 and 10 nM recombinant human ALDH2 in 50 mM Hepes buffer, pH 7.4, 0.01% Tween 20 in a final volume of 50 ul using 384-well plates. After 60 min of pre-incubation of compound with ALDH2 and formaldehyde, the reaction was started by adding NAD+ and the reaction mixture was allowed to proceed for 90 minutes. Activity of the enzyme was determined by monitoring NADH formation using Perkin-Elmer Envision Reader with excitation and emission wavelengths set at 340 and 460 nm, respectively.
(§1) Note: IC50 refers to the concentration of a compound that inhibits a reaction by 50%. In the case of competitive inhibition, IC50=2Ki when the substrate is present at the Km concentration, as per the relationship: Ki=IC50/[1+(substrate concentration/Km)].

The target of assay [2] is hMAO-A (Homo sapiens (Human), UniProt P21397). As to the kind of experiment: MAO-A assay (luminogenic MAO substrate). The note with it: microsome contained MAO-A, 160 uM substrate, 20 min pre-incubation; unit inferred. How it is done: (§2) MAO assays included luminogenic MAO substrate, reaction buffers, Luciferin Detection and the reconstitution buffer with esterase. Standard MAO reaction mixtures included microsome contained MAO-A (2 ug) or MAO-B (10 ug), 160 uM substrate for MAO-A or 16 uM substrate for MAO-B, MAO-A buffer (100 mM Hepes buffer, pH 7.5, 5% glycerol) or MAO-B buffer (100 mM Hepes, pH 7.5, 5% glycerol, 10% dimethyl sulfoxide) in a final volume of 30 ul. After 20 minutes of pre-incubation of the enzyme with compounds, the reaction was initiated by adding enzyme substrate and the reaction was allowed to proceed for 60 minutes. Reconstituted Luciferin Detection Reagent (30 ul) was then added is added to simultaneously stop the MAO reaction and convert the methyl ester derivative to luciferin and produce light. The amount of light produced is directly proportional to the activity of MAO. The mixtures were further incubated for 20 minutes and activity of the enzyme was determined using Perkin-Elmer Envision Reader.
hMAO-A, sequence (P21397 whole entry): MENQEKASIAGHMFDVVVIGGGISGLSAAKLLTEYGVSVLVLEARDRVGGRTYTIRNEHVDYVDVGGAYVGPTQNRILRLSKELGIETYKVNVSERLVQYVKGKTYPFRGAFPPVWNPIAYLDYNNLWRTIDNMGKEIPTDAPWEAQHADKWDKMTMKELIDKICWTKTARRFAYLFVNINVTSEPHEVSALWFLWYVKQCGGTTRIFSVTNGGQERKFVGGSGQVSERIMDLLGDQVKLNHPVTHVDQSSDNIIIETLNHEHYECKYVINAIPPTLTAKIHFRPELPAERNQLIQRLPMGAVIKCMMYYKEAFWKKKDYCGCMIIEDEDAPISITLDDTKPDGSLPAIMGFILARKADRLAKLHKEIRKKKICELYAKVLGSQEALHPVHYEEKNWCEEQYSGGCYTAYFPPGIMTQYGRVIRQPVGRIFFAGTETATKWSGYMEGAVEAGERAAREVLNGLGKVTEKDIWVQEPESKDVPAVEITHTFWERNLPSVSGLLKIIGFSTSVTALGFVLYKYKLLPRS
as §1

The target in assay [3] is hMAO-B (Homo sapiens (Human), UniProt P27338). The experiment in a line: MAO-B assay (luminogenic MAO substrate). The note with it: microsome contained MAO-B, 16 uM substrate, 20 min pre-incubation; unit inferred. The method, then: as §2, §1
hMAO-B, sequence (P27338 whole entry): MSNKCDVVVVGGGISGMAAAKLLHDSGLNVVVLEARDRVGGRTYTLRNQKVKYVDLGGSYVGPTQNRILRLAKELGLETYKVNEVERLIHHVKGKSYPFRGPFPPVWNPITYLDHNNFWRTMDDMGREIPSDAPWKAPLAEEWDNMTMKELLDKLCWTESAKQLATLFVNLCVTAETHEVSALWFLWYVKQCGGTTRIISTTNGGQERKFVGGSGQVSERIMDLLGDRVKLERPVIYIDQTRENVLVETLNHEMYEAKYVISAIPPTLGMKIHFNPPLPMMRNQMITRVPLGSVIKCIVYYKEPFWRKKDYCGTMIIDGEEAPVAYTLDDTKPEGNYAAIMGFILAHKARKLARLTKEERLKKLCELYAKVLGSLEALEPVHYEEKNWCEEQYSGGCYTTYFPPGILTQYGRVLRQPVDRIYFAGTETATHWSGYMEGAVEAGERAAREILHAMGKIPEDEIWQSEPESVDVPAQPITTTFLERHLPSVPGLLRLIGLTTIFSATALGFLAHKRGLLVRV

Structures are written as SMILES.

recombinant human ALDH2, sequence (P05091 18-517): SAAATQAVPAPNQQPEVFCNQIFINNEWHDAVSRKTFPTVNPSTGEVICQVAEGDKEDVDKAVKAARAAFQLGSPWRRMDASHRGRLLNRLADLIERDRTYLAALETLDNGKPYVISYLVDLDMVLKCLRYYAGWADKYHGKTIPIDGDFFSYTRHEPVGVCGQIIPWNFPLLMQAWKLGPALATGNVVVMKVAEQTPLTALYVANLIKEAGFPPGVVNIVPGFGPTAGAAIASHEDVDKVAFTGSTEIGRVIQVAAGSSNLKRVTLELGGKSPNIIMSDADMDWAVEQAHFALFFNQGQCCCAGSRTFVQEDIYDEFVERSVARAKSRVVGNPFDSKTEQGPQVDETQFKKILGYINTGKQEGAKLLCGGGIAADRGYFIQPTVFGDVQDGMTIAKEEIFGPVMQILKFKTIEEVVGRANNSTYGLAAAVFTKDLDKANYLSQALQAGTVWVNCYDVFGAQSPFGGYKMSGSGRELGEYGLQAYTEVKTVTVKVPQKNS

As usually defined, the IC50 is the midpoint of a concentration-inhibition curve. Take `CS(=O)(=O)Nc1ccc(-c2coc3cc(C#Cc4cc[nH]c(=O)c4)ccc3c2=O)cc1` [N-(4-(4-oxo-7-((2-oxo-1,2-dihydropyridin-4-yl)ethynyl)-4H-chromen-3-yl)phenyl)methanesulfonamide]: the IC50 in assay [1] is 0.009 µM; in assay [2] it was over 130 µM; in assay [3] it was over 130 µM.

Turning to `CS(=O)(=O)Nc1ccc(-c2coc3cc(C#CC4CCOCC4)ccc3c2=O)cc1` [N-(4-(4-oxo-7-((tetrahydro-2H-pyran-4-yl)ethynyl)-4H-chromen-3-yl)phenyl)methanesulfonamide], the IC50 was 0.043 µM in assay [1], over 130 µM in assay [2] and over 130 µM in assay [3].

With `CS(=O)(=O)Nc1ccc(-c2coc3cc(C#Cc4ccccc4)ccc3c2=O)cc1` [N-(4-(4-oxo-7-(phenylethynyl)-4H-chromen-3-yl)phenyl)methanesulfonamide], the IC50 in assay [1] is 0.329 µM; in assay [2], over 13 µM; in assay [3] it was over 13 µM.

Regarding `CS(=O)(=O)Nc1ccc(-c2coc3cc(C#CC4CCNCC4)ccc3c2=O)cc1` [N-(4-(4-oxo-7-(piperidin-4-ylethynyl)-4H-chromen-3-yl)phenyl)methanesulfonamide], the IC50 is 0.174 µM in assay [1], over 110 µM in assay [2] and over 130 µM in assay [3].

On to `CS(=O)(=O)Nc1ccc(-c2coc3cc(C#Cc4ccccn4)ccc3c2=O)cc1` [N-(4-(4-oxo-7-(pyridin-2-ylethynyl)-4H-chromen-3-yl)phenyl)methanesulfonamide], for which the IC50 in assay [1] is 0.09 µM; in assay [2], over 130 µM; in assay [3], over 130 µM.

For the molecule `CS(=O)(=O)Nc1ccc(-c2coc3cc(C#Cc4cccnc4)ccc3c2=O)cc1` [N-(4-(4-oxo-7-(pyridin-3-ylethynyl)-4H-chromen-3-yl)phenyl)methanesulfonamide], the values for the IC50 in assay [1], in assay [2] and in assay [3] were 0.021 µM, over 130 µM and over 130 µM, respectively.

`CS(=O)(=O)Nc1ccc(-c2coc3cc(C#Cc4cncnc4)ccc3c2=O)cc1` [N-(4-(4-oxo-7-(pyrimidin-5-ylethynyl)-4H-chromen-3-yl)phenyl)methanesulfonamide]: the IC50 in assay [1] was 0.057 µM; in assay [2], over 130 µM; in assay [3] it was 114 µM.

Consider `CC(C)(O)C#Cc1ccc2c(=O)c(-c3ccc(NS(C)(=O)=O)cc3)coc2c1` [N-(4-(7-(3-hydroxy-3-methylbut-1-ynyl)-4-oxo-4H-chromen-3-yl)phenyl)methanesulfonamide], for which the IC50 in assay [1] is 2.18 µM; in assay [2] it was over 91 µM; in assay [3], over 91 µM.

With `COCC#Cc1ccc2c(=O)c(-c3ccc(NS(=O)(=O)C4CC4)cc3)coc2c1` [N-(4-(7-(3-methoxyprop-1-ynyl)-4-oxo-4H-chromen-3-yl)phenyl)cyclopropanesulfonamide], the values for the half-inhibitory concentration (IC50) in assay [1], in assay [2] and in assay [3] were 0.096 µM, over 130 µM and over 130 µM, respectively.

For the molecule `COCC#Cc1ccc2c(=O)c(-c3ccc(NS(C)(=O)=O)cc3)coc2c1` [N-(4-(7-(3-methoxyprop-1-ynyl)-4-oxo-4H-chromen-3-yl)phenyl)methanesulfonamide], the IC50 in assay [1] was 0.047 µM; in assay [2], over 130 µM; in assay [3], over 130 µM.

Consider `Cc1ncc(C#Cc2ccc3c(=O)c(-c4ccc(NS(C)(=O)=O)cc4)coc3c2)n1C` [N-(4-(7-((1,2-dimethyl-1H-imidazol-5-yl)ethynyl)-4-oxo-4H-chromen-3-yl)phenyl)methanesulfonamide], for which the results for the IC50 in assay [1], in assay [2] and in assay [3] were 0.015 µM, over 130 µM and over 130 µM, respectively.

Take `CC1(C(=O)N2CC(C#Cc3ccc4c(=O)c(-c5ccc(NS(C)(=O)=O)cc5)coc4c3)C2)CC1` [N-(4-(7-((1-(1-methylcyclopropanecarbonyl)-azetidin-3-yl)ethynyl)-4-oxo-4H-chromen-3-yl)phenyl)methanesulfonamide]: the IC50 in assay [1] was 0.006 µM; in assay [2], over 130 µM; in assay [3] it was over 130 µM.

As to `CN1CCC(C(=O)N2CC(C#Cc3ccc4c(=O)c(-c5ccc(NS(C)(=O)=O)cc5)coc4c3)C2)CC1` [N-(4-(7-((1-(1-methylpiperidine-4-carbonyl)azetidin-3-yl)ethynyl)-4-oxo-4H-chromen-3-yl)phenyl)methanesulfonamide], the IC50 in assay [1] was 0.035 µM; in assay [2], over 130 µM; in assay [3] it was over 130 µM.

Consider `CS(=O)(=O)Nc1ccc(-c2coc3cc(C#CC4CN(C(=O)C5CC5(F)F)C4)ccc3c2=O)cc1` (stereo not drawn) [N-(4-(7-((1-(2,2-difluorocyclopropane-carbonyl)azetidin-3-yl)ethynyl)-4-oxo-4H-chromen-3-yl)phenyl)methanesulfonamide], for which the IC50 in assay [1] was 0.005 µM; in assay [2], over 130 µM; in assay [3], over 130 µM.

As to `CC(C)(O)C(=O)N1CC(C#Cc2ccc3c(=O)c(-c4ccc(NS(C)(=O)=O)cc4)coc3c2)C1` [N-(4-(7-((1-(2-hydroxy-2-methylpropanoyl)-azetidin-3-yl)ethynyl)-4-oxo-4H-chromen-3-yl)phenyl)methanesulfonamide], the results for the IC50 in assay [1], in assay [2] and in assay [3] were 0.016 µM, over 130 µM and over 130 µM, respectively.

Turning to `CS(=O)(=O)Nc1ccc(-c2coc3cc(C#CC4CN(C(=O)CO)C4)ccc3c2=O)cc1` [N-(4-(7-((1-(2-hydroxyacetyl)azetidin-3-yl)ethynyl)-4-oxo-4H-chromen-3-yl)phenyl)methanesulfonamide], the results for the IC50 in assay [1], in assay [2] and in assay [3] were 0.015 µM, over 130 µM and over 130 µM, respectively.

In the case of `CC(O)C(=O)N1CC(C#Cc2ccc3c(=O)c(-c4ccc(NS(C)(=O)=O)cc4)coc3c2)C1` (stereo not drawn) [N-(4-(7-((1-(2-hydroxypropanoyl)azetidin-3-yl)ethynyl)-4-oxo-4H-chromen-3-yl)phenyl)methanesulfonamide], the IC50 in assay [1] is 0.015 µM; in assay [2] it was over 130 µM; in assay [3], over 130 µM.

For `CS(=O)(=O)Nc1ccc(-c2coc3cc(C#CC4CN(C(=O)C5CC(F)(F)C5)C4)ccc3c2=O)cc1` [N-(4-(7-((1-(3,3-difluorocyclobutanecarbonyl)azetidin-3-yl)ethynyl)-4-oxo-4H-chromen-3-yl)phenyl)methanesulfonamide], the IC50 in assay [1] was 0.006 µM; in assay [2], over 130 µM; in assay [3] it was over 130 µM.

Consider `CN(C)CCC(=O)N1CC(C#Cc2ccc3c(=O)c(-c4ccc(NS(C)(=O)=O)cc4)coc3c2)C1` [N-(4-(7-((1-(3-(dimethylamino)propanoyl)azetidin-3-yl)ethynyl)-4-oxo-4H-chromen-3-yl)phenyl)methanesulfonamide], for which the figures for the IC50 in assay [1], in assay [2] and in assay [3] were 0.064 µM, 46.9 µM and over 130 µM, respectively.

`CC1(O)CC(C(=O)N2CC(C#Cc3ccc4c(=O)c(-c5ccc(NS(C)(=O)=O)cc5)coc4c3)C2)C1` (stereo not drawn) [N-(4-(7-((1-(3-hydroxy-3-methylcyclobutane-carbonyl)azetidin-3-yl)ethynyl)-4-oxo-4H-chromen-3-yl)phenyl)methanesulfonamide]: the IC50 is 0.005 µM in assay [1], over 130 µM in assay [2] and over 130 µM in assay [3].

`COCCC(=O)N1CC(C#Cc2ccc3c(=O)c(-c4ccc(NS(C)(=O)=O)cc4)coc3c2)C1` [N-(4-(7-((1-(3-methoxypropanoyl)azetidin-3-yl)ethynyl)-4-oxo-4H-chromen-3-yl)phenyl)methanesulfonamide]: the results for the IC50 in assay [1], in assay [2] and in assay [3] were 0.008 µM, over 130 µM and over 130 µM, respectively.

Turning to `CC1(C(=O)N2CC(C#Cc3ccc4c(=O)c(-c5ccc(NS(C)(=O)=O)cc5)coc4c3)C2)COC1` [N-(4-(7-((1-(3-methyloxetane-3-carbonyl)azetidin-3-yl)ethynyl)-4-oxo-4H-chromen-3-yl)phenyl)methanesulfonamide], the IC50 in assay [1] was 0.006 µM; in assay [2], over 130 µM; in assay [3] it was over 130 µM.

For the molecule `CS(=O)(=O)Nc1ccc(-c2coc3cc(C#CC4CN(C(=O)C5CCC5)C4)ccc3c2=O)cc1` [N-(4-(7-((1-(cyclobutanecarbonyl)azetidin-3-yl)ethynyl)-4-oxo-4H-chromen-3-yl)phenyl)methanesulfonamide], the IC50 in assay [1] was 0.004 µM; in assay [2], over 130 µM; in assay [3], over 130 µM.

On to `CS(=O)(=O)Nc1ccc(-c2coc3cc(C#CC4CCN(C(=O)C5CC5)CC4)ccc3c2=O)cc1` [N-(4-(7-((1-(cyclopropanecarbonyl)piperidin-4-yl)ethynyl)-4-oxo-4H-chromen-3-yl)phenyl)methanesulfonamide], for which the half-inhibitory concentration (IC50) in assay [1] was 0.0065 µM; in assay [2], over 130 µM; in assay [3] it was over 130 µM.
